Data on nine molecules can be found in patent US10487084B2, “Toll-like receptor 7 (TLR7) agonists having a heterobiaryl moiety, conjugates thereof, and methods and uses therefor” (BRISTOL-MYERS SQUIBB COMPANY, priority 2017, dated 2019).

The target of test [1] is human TLR7 (Homo sapiens (Human), UniProt Q9NYK1). Put plainly: HEK-Blue TLR7 reporter assay (TLR7 agonism). To be noted: HEK-Blue TLR7 cells, SEAP reporter, 18 h treatment. It counts as cell-based. On the procedure:
This example describes a method for assaying TLR7 agonist activity of the compounds disclosed in this specification.
HEK-Blue™ TLR7 cells were added to each well of a 384-well tissue-culture plate (15,000 cells per well) and incubated 16-18 h at 37° C., 5% CO2. Compounds (100 nl) were dispensed into wells containing the HEK-Blue™ TLR cells and the treated cells were incubated at 37° C., 5% CO2. After 18 h treatment ten microliters of freshly-prepared Quanti-Blue™ reagent (Invivogen) was added to each well, incubated for 30 min (37° C., 5% CO2) and SEAP levels measured using an Envision plate reader (OD=620 nm).
(In general: A reporter such as luciferase makes a cellular process visible.)

Test [2] deals with interleukin 6 (IL-6). As to the kind of experiment: Interleukin 6 induction assay in human whole blood. It counts as cell-based. To be noted: 37° C. for 20 h, AlphaLISA. On the procedure:
This example describes a method for assaying interleukin 6 induction by compounds disclosed in this specification.
Compounds diluted in DMSO were transferred to individual wells of a Matrix Tech-nologies clear, V-bottom 384-well plate using ECHO acoustic liquid handling technology (25 nL per well). Human whole-blood samples (25 uL) were added to each well using a CyBio FeliX liquid handling instrument. The plate was shaken on a plate shaker for three min before incubating the reaction mixtures at 37° C. for 20 h. Basel RPMI 1640 medium (supplemented with L-glutamine) was then added to each well (25 uL per well) prior to liberating plasma from each sample by centrifugation (450×g, 5 min, ambient temperature). Treated plasma samples (3 uL) were subsequently transferred to individual wells of a white, shallow, 384-well ProxiPlate (Perkin Elmer) using the FeliX liquid handling instrument and their interleukin 6 levels were measured using AlphaLISA technology as described by the manufacturer, PerkinElmer. Data analyses software was used to determine compound EC50 values where the baseline was established using average DMSO values and 100% induction established using reference compound values at the highest concentration tested. EC50's can be determined with software such as Graphpad Prism™.

Test [3] relates to IFN-α. The conditions noted are these: fold lower potency vs corresponding purine-8-one compound; cited from earlier work.

Chain of human TLR7 (Q9NYK1 27-1049): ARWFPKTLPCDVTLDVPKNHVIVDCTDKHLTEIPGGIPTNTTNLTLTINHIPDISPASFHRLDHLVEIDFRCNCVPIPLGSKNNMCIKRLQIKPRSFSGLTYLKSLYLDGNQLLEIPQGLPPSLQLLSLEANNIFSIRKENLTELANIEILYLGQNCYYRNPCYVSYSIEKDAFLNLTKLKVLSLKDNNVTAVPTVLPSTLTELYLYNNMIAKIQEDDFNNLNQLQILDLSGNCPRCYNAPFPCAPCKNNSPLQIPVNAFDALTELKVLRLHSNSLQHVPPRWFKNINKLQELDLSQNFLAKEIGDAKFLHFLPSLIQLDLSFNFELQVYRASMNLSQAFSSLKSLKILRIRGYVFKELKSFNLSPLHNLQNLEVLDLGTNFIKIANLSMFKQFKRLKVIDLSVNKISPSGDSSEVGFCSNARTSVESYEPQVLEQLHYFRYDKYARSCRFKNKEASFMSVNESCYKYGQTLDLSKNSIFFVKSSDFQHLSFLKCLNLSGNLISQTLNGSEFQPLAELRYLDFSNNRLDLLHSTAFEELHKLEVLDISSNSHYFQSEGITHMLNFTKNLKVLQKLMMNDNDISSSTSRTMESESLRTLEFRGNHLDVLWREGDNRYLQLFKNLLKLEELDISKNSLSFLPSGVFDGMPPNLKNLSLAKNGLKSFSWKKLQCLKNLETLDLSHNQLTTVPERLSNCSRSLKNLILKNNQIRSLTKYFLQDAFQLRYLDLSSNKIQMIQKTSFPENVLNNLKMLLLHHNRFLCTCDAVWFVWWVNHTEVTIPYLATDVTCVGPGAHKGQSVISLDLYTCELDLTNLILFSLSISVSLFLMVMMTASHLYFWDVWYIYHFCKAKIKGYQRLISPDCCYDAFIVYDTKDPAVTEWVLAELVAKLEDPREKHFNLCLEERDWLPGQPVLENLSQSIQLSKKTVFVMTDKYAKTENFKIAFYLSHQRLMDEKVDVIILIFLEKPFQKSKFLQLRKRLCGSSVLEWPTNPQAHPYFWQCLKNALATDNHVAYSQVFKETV

For the molecule `CCCCOc1nc(N)c2nc(O)n(Cc3ccccc3)c2n1` [Compound B, reference compound], the EC50 – broadly, the concentration needed to bring the measured effect to its halfway point – in test [1] worked out at 0.474 µM.
Take `CCCCOc1nc(N)c2nc(O)n(Cc3ccc(-c4cnn(CC(=O)NC5CNC5)c4)cc3)c2n1` [Ia-06]: the EC50 was determined as 0.0887 µM in test [2] and 0.024 µM in test [1].
Regarding `CCCCOc1nc(N)c2nc(O)n(Cc3ccc(-c4cnn(CCO)c4)cc3)c2n1` [Ia-01], the figures for the EC50 in test [2] and in test [1] were 0.108 µM and 0.016 µM, respectively.
Taken in the same sequence, the figures for `CCCCOc1nc(N)c2nc(O)n(Cc3ccc(-c4cnn(CCNC5CCC5)c4)cc3)c2n1` [Ia-04] were 0.0069 µM and 0.0075 µM.
In turn, `CCCCOc1nc(N)c2nc(O)n(Cc3ccc(-c4csc(CN)c4)nc3)c2n1` [Ib-02] had an EC50 in test [2] of 0.00755 µM.
Turning to `CCCCOc1nc(N)c2nc(O)n(Cc3ccc(-c4nc(CO)co4)cc3)c2n1` [Ic-01], the values for the EC50 in test [2] and in test [1] were 0.365 µM and 0.099 µM, respectively.
Consider `CCCCOc1nc(N)c2nc(O)n(Cc3ccc(-c4cnn(C5CNC5)c4)cc3)c2n1` [Ia-03], for which the EC50 was found to be 0.015 µM in test [2] and 0.026 µM in test [1].
As for `CCCCOc1nc(N)c2c(n1)N(Cc1cccc(CN3CCCC3)c1)CC(=O)N2` [Vesatolimod, vesatolimod], the “potency less than that of the corresponding purine-8-one compound, as measured by IFN-α induction” value in test [3] is listed as 100 ×.
Molecule `CCCCOc1nc(N)c2nc(O)n(Cc3ccc(-c4csc(CN)c4)cc3)c2n1` [Ib-01] returned an EC50 in test [2] of 0.106 µM.
